In assay [1] the target is T1, wild-type Y2R (Homo sapiens, UniProt P49146).
T1 construct: expressed in transfected cells; host or cells: HEK293
T1 sequence (P49146 1-381): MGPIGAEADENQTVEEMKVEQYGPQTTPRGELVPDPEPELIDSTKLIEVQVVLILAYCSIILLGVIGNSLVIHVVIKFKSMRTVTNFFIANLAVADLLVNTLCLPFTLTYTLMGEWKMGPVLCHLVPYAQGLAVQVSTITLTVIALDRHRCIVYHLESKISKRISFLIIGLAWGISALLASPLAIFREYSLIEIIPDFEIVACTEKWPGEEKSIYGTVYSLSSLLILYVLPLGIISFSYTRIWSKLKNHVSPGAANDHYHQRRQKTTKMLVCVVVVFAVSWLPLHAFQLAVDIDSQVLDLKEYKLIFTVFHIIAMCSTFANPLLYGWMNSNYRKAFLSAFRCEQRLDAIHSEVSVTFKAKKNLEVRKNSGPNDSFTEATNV
In words: NanoBRET-based binding assay (K18(TAMRA)-NPY). The note with it: read-out: pIC50 ± SEM, NanoBRET binding (converted). How it is done: (§1) For this purpose, a Nanoluciferase[44] (Promega, Madison, WO, USA) followed by a flexible […] terminus of the receptor in an Y2-eYFP_N1 vector[45]. The Nanoluciferase replaced the similarly sized N-terminal T4L fusion in the crystallization construct. To facilitate correct expression of this large N-terminal domain and export to the plasma membrane, a signal sequence of human interleukin 6 ([…]) was used[44]. HEK293 cells were transiently transfected with 8 μg of the corresponding vectors per T75 flask using MetafectenePro (Biontex) following the manufacturer's instructions. Twenty-four hours post transfection, the cells were harvested in PBS (-Ca^2+; -Mg^2+) and frozen (-80 °C). The membranes were prepared as described previously. Briefly, the cells were lysed in a hypotonic TRIS buffer (50 mM Tris-HCl, pH 7.5 and 50 μM Pefabloc SC) and homogenized using a manual dounce homogenizer for 15 times. Nuclei and cell debris was removed by centrifugation at 820 × g for 10 min (4 °C), and the microsomal membranes in the supernatant were collected by centrifugation at 20,000 × g for 60 min (4 °C). […] The total protein amount was determined by a Bradford assay. The membrane preparations were stored in aliquots at -80 °C. […] Directly before the measurement, 10 μl coelenterazine H in HBSS/HEPES was added to a final concentration of 4 μM. […] The BRET ratio was calculated by the ratio of F/L, and corrected by the background values. The IC50 values were determined using a three-parameter logistic fit in the GraphPad Prism 5 software (GraphPad Software, San Diego, CA, USA).
Background: In BRET a luciferase serves as donor, and the signal depends on an acceptor being close.

Assay [2] has as its target T2, modified Y2R used for crystallization without N-terminal T4L (Construct_no T4L) (Homo sapiens, UniProt P49146, DEL251-256/H149Y/S280C).
T2 construct: eYFP (from the vector name) (C); expressed in transfected cells; host or cells: HEK293 (membrane preparations)
As to the kind of experiment: NanoBRET-based binding assay (K18(TAMRA)-NPY). The note with it: 300 nM K18(TAMRA)-NPY. How it is done: as §1

Assay [3] concerns the target T1, wild-type Y2R. As to the kind of experiment: Dose-dependent inhibition of NPY (0.3 nM)-induced IP accumulation. It is filed as cell-based. The note with it: read-out: pIC50 ± SEM, inhibition of NPY-induced IP accumulation (converted). Here is the method: To determine the contribution of residues to antagonist binding, IP-One accumulation assays (Cisbio, Codolet, France) were performed. […] The cells were then reseeded into white 384-well microplates (Greiner Bio-One, Kremsmünster, Austria) at a density of 15,000 cells per well and grown for additional 24 h. […] Three microliters of both solutions were added, and the cells were incubated on a tumbler for 60 min.

The next assay addresses T3, Y2R mutant Q130^3.32H (Homo sapiens, UniProt P49146, Q130H).
T3 construct: expressed in transfected cells; host or cells: HEK293
As to the kind of experiment: NPY-induced IP accumulation (IP-One), mutant. The note with it: 1 μM antagonist. Type of assay: cell-based. How it is done:
The plasmid hY2R_eYFP_pVitro2 encoding the WT Y2R and a fluorophore for investigating the receptor localization was used as template for the generation of receptor point mutations as previously described. Mutagenesis PCR was performed using the Phusion High-Fidelity Polymerase (Thermo Fisher Scientific, Waltham, MA, USA). […] The preparations of the plasmid DNA were performed using the Wizard plus Mini or Midi DNA purification kit (Promega, Madison, WI, USA).
(§2) To determine the contribution of residues to antagonist binding, IP-One accumulation assays (Cisbio, Codolet, France) were performed. HEK293 cells were seeded into six-well plates and transiently cotransfected with 3200 ng of receptor plasmid DNA and 800 ng of the chimeric G protein (Gα∆6qi4myr) to redirect the Gαi signaling pathway to the Gαq phospholipase C pathway. Transient transfection was carried out using Metafectene as transfection reagent according to the manufacturer’s protocol (Biontex, Munich, Germany) over night. The cells were then reseeded into white 384-well microplates (Greiner Bio-One, Kremsmünster, Austria) at a density of 15,000 cells per well and grown for additional 24 h.
All dilutions were performed in HBSS containing 20 mM LiCl (stimulation buffer) and DMSO with a final concentration of 0.01%.
To determine the amount of cellular IPs, the FRET acceptor (IP1-d2) and the FRET donor (anti-IP1-Cryptate) were reconstituted and diluted in lysis and detection buffer (1:20) as described in the manufacturer’s protocol. Three microliters of both solutions were added, and the cells were incubated on a tumbler for 60 min.

Assay [4] deals with T4, Y2R crystallization construct without flavodoxin in ICL3 (construct_no flavodoxin) (Homo sapiens, UniProt P49146, H149Y/S280C).
T4 construct: expressed in transfected cells; host or cells: HEK293
In words: Dose-dependent inhibition of NPY (0.3 nM)-induced IP accumulation. It is filed as cell-based. The note with it: read-out: pIC50 ± SEM, inhibition of NPY-induced IP accumulation (converted). Here is the method: as §2, with “([…])” for “(Gα∆6qi4myr)”, “manufacturer's” for “manufacturer’s”, “h. […] The cells were stimulated at 37 °C and 5% CO2 in humidified atmosphere for 90 min. The exact value of the effective concentration (ECx) at the day of the assay was determined by control curves in the absence of antagonist. To determine the amount of cellular IPs, the FRET acceptor (IP1-d2) and the FRET donor (anti-IP1-Cryptate) were reconstituted and diluted in lysis and detection buffer (1:20) as described in the manufacturer's protocol. Three microliters of both solutions were added, and the cells were incubated on a tumbler for 60 min.” for “h.”

Another assay has as its system NPY receptors. The note with it: cited from earlier work.
In assay [5] the target is wild-type human Y2R with C-terminal eYFP (hY2R_eYFP_pVitro2) (human) (UniProt P49146).
The target of assay [6] is Y2R mutant Y110^2.64A (hY2R_eYFP_pVitro2) (human) (UniProt P49146).
The target of assay [7] is Y2R mutant D292^6.59N (hY2R_eYFP_pVitro2) (human) (UniProt P49146).
In assay [8] the target is Y2R mutant Q130^3.32H (hY2R_eYFP_pVitro2) (human) (UniProt P49146).
For another assay, the system named is Y2R. Further details: method as in earlier work. Conditions: ref Swanson, D.M. et al., Bioorg. Med. Chem. Lett. 21:5552-5556, 2011; read-out: Y2R affinity IC50; cited from earlier work.

We go through four molecules from publication PMC7854658, “Structural basis for ligand recognition of the neuropeptide Y Y2 receptor” (Nature Communications, 2021).

Like-named read-outs stand apart in the source and are kept apart here.

T2 sequence (P49146 with tags, fused parts or gaps H149Y/DEL251-256/S280C): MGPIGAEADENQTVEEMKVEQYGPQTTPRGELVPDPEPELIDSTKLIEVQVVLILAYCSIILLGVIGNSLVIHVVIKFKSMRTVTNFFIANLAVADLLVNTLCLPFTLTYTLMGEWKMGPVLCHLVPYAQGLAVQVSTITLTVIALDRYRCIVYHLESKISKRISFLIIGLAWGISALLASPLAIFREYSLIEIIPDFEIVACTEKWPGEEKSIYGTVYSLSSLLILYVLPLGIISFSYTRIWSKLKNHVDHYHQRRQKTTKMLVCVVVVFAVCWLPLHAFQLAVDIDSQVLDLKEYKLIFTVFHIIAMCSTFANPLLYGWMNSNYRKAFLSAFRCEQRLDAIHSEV
T4 sequence (P49146 1-353 H149Y/S280C): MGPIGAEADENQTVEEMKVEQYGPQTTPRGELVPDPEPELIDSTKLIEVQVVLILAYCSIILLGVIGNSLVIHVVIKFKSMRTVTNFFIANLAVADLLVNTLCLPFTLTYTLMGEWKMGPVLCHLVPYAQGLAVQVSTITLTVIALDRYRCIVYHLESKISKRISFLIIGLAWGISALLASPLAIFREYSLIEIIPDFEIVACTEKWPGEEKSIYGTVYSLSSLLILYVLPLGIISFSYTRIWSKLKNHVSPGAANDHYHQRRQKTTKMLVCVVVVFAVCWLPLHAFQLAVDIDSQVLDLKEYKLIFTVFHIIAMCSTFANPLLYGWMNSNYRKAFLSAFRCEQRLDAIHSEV
T3 sequence (P49146 whole entry Q130H): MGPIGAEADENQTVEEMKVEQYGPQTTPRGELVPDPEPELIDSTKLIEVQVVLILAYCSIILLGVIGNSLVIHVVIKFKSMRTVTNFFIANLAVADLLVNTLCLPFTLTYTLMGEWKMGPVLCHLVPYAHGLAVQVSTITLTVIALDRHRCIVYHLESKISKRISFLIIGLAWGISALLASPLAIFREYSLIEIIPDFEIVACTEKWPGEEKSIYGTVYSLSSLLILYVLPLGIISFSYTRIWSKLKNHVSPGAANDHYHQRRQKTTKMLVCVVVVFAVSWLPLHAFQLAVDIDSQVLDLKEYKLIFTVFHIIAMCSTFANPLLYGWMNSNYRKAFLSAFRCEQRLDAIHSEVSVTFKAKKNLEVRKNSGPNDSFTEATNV

For the molecule `CCN(CC)C(=O)C(c1ccccc1)N1CCN(c2ccc(NC(=O)c3ccccc3-c3cccnc3)cc2F)CC1` (stereo not shown) [JNJ-31020028, N-(4-{4-[2-(diethylamino)-2-oxo-1-phenylethyl]piperazin-1-yl}-3-fluorophenyl)-2-pyridin-3-ylbenzamide], the IC50 is 1.29 nM on wild-type Y2R [1]; 0.7 nM in [2] (read-out: IC50, NanoBRET binding); 0.676 nM in [2] (read-out: pIC50 ± SEM, NanoBRET binding (converted)); 47.9 nM at wild-type Y2R [3]; 60.3 nM in [4]. In addition, at Y2R mutant Q130^3.32H, the “Antagonistic activity compared to WT (in words)” value is on record as “increased antagonistic activity”. In the assay with NPY receptors, the “Higher binding affinity to Y2R over the other NPY receptors” value is “over 100 fold”.
As for “neuropeptide Y (NPY) (from UniProt P01303 29-64)”, the values for the EC50 of NPY-induced IP accumulation (IP-One assay, HEK293 cells with chimeric G protein) in assay [5] and in [6] were 0.06 nM and 1.8 nM, respectively. This molecule also registered a fold change of the EC50 of NPY in triggering Y2R signaling (IP accumulation) against the wild-type Y2R in assay [7] of 233 fold. In assay [8], this molecule registered a fold change of the EC50 of NPY-induced receptor signaling (IP accumulation) against the wild-type Y2R of 132 fold.
For `CCN(CC)C(=O)C(c1ccccc1)N1CCN(c2ccc(NC(=O)c3ccccc3-c3cccnc3)cc2F)CC1` (single isomer, unassigned) [S-isomer], in the assay with Y2R, the IC50 is 14 ± 3 nM.
As to `CCN(CC)C(=O)C(c1ccccc1)N1CCN(c2ccc(NC(=O)c3ccccc3-c3cccnc3)cc2F)CC1` (single isomer, unassigned) [R-isomer], the IC50 with Y2R is 9 ± 2 nM.
